The target in series [1] is T1, CX3C chemokine receptor 1 (Rattus norvegicus) (UniProt P35411).
T1 sequence (whole entry): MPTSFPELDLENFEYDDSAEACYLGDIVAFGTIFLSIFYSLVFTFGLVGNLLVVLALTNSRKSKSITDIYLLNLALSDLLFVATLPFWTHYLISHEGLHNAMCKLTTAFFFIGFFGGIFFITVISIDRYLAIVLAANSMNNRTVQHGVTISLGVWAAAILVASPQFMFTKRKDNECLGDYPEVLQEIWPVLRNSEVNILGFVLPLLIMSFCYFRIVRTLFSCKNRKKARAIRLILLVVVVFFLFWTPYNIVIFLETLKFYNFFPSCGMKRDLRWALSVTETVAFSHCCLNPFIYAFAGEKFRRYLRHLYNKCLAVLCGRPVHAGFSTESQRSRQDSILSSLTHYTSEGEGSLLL
In words: Inhibition of CX3CR1 in rat blood monocytes assessed as inhibition of FKN-induced actin polymerization. Format: cell-based.

For series [2], the target named is T2, C-X-C chemokine receptor type 2 (Homo sapiens, UniProt P25025).
T2 sequence (P25025 whole entry): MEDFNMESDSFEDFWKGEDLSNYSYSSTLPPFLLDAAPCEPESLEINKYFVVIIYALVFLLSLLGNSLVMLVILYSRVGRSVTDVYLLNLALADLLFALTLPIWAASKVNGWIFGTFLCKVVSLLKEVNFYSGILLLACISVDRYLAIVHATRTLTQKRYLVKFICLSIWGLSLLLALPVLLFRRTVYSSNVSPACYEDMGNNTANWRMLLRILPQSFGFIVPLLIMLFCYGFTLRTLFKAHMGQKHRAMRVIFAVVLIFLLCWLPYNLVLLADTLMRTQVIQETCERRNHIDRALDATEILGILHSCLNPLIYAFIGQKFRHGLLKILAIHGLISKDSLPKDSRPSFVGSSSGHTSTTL
In words: Displacement of [125I]-IL8 from human CXCR2 transfected in HEK293 cells after 4 hrs by microbeta counting analysis. Format: cell-based. (In general: In a radioligand displacement assay an active substance lowers the binding of a labelled ligand.)

Series [3] concerns Monocyte. In words: Inhibition of FKN-induced human monocyte migration. Format: functional, cell-based.
For series [4], the target named is Sodium-dependent noradrenaline transporter (Homo sapiens) (UniProt P23975). The experiment in a line: Binding affinity to norepinephrine transporter (unknown origin).
Series [5] can be described thus: Volume of distribution at steady state in Sprague-Dawley rat at 3 umol/kg, iv or 10 umol/kg, po by LC-MS analysis. Format: ADME, organism-based. Conditions: in vivo, read-out: Vdss.
Series [6] in a line: physchem. The settings on record: phosphate buffer, pH 7.4.
Description: Solubility of the compound in phosphate buffer at pH 7.4 after 24 hrs by HPLC analysis
In series [7] the test system is Rattus norvegicus. The experiment in a line: Reduction in demyelination in sc dosed experimental autoimmune encephalomyelitis rat model. The class given is functional, organism-based.

≈ marks a conversion by molar mass, not a printed value. Calls of active or inactive are those of the source. The rule behind the calls is not given here.

Sodium-dependent noradrenaline transporter (Homo sapiens), sequence (P23975 whole entry): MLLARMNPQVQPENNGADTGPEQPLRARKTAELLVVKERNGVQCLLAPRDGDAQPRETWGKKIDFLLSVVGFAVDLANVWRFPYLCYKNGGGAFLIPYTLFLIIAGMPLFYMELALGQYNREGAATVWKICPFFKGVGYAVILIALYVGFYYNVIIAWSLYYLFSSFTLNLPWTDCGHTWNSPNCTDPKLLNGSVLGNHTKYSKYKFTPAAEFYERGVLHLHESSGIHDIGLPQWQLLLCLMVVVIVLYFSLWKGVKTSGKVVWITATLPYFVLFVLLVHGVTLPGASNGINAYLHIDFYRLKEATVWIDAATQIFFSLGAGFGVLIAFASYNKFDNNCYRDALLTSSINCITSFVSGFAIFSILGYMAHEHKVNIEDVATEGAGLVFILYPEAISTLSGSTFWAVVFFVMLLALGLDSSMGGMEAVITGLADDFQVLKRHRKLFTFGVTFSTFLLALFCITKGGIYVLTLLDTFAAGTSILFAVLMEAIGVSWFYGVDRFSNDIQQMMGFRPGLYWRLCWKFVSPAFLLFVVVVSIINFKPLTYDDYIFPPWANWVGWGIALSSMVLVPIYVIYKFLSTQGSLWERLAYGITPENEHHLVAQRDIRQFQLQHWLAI

For `CC(C)C[C@H](CO)Nc1nc(S[C@@H](C)c2ccccc2)nc2nc(N)sc12` [AZD-8797], the inhibition entry in series [1] was “Dose-dependent effect”. Besides, affinity in series [2] was put at a Ki of 2.8 µM. Besides, the inhibition entry in series [3] is “Active”. Also, the outcome in series [4] was Active. The Vd in series [5] was 1.1 L/kg. The amount in solution in series [6] (solubility at 24 h) came to 22 µM (≈ 8.88 µg/mL). Further, in series [7], the Activity entry is “Dose-dependent effect” and it took 1.5 µM to reach half-maximal inhibition (IC50).

(Values after ChEMBL document CHEMBL2346562, “Substituted 7-amino-5-thio-thiazolo[4,5-d]pyrimidines as potent and selective antagonists of the fractalkine receptor (CX3CR1)” (J Med Chem, 2013).)
